Reference: PubChem BioAssay (NCI)
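Cells were grown in 96-well plates and exposed to each compound for 48 hours at five concentrations; endpoints were interpolated linearly between bracketing concentrations, or set to the highest concentration if not reached. At the TGI there is no net growth.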

What was measured:
Assay in all cases: NCI anticancer screen, dose series, 48 h
[1] = tested on: HS 578T breast
[2] = tested on: COLO 205 colon
[3] = tested on: NCI-H226 lung
[4] = tested on: MCF7 breast
[5] = tested on: RXF 393 renal
[6] = tested on: U251 CNS
[7] = tested on: HT29 colon
[8] = tested on: M14 melanoma
[9] = tested on: SK-MEL-5 melanoma
[10] = tested on: K-562 leukemia
[11] = tested on: OVCAR-4 ovarian
[12] = tested on: SNB-19 CNS
[13] = tested on: HCT-15 colon
[14] = tested on: SNB-75 CNS
[15] = tested on: SN12C renal
[16] = tested on: DU-145 prostate
[17] = tested on: CCRF-CEM leukemia
[18] = tested on: SW-620 colon
[19] = tested on: HOP-62 NSCLC
[20] = tested on: SF-539 CNS
[21] = tested on: NCI-H522 lung
[22] = tested on: IGROV1 ovarian
[23] = tested on: UO-31 renal
[24] = tested on: MOLT-4 leukemia
[25] = tested on: UACC-257 melanoma
[26] = tested on: BT-549 breast
[27] = tested on: HCT-116 colon
[28] = tested on: SF-268 CNS
[29] = tested on: 786-0 renal
[30] = tested on: ACHN renal
[31] = tested on: CAKI-1 renal
[32] = tested on: KM12 colon
[33] = tested on: OVCAR-8 ovarian
[34] = tested on: OVCAR-5 ovarian
[35] = tested on: SK-OV-3 ovarian
[36] = tested on: MDA-MB-435
[37] = tested on: SK-MEL-28 melanoma
[38] = tested on: A549 NSCLC
[39] = tested on: EKVX NSCLC
[40] = tested on: SR leukemia
[41] = tested on: TK-10 renal
[42] = tested on: UACC-62 melanoma
[43] = tested on: NCI-H460 lung
[44] = tested on: SF-295 CNS
[45] = tested on: MDA-MB-231 breast
[46] = tested on: MDA-N
[47] = tested on: OVCAR-3 ovarian
[48] = tested on: PC-3 prostate
[49] = tested on: LOX IMVI melanoma
[50] = tested on: NCI/ADR-RES ovarian
[51] = tested on: T-47D breast
[52] = tested on: HOP-92 NSCLC
[53] = tested on: NCI-H23 lung
[54] = tested on: HL-60(TB) leukemia
[55] = tested on: A498 renal
[56] = tested on: HCC-2998 colon
[57] = tested on: SK-MEL-2 melanoma
[58] = tested on: RPMI-8226 leukemia
[59] = tested on: MALME-3M melanoma

## CC1=C(C(=O)OCc2ccncc2)C(C2=C(C)SCCS2)C(C(=O)OCc2ccncc2)=C(C)N1
[1]
  TGI: 58.3 µM
[2]
  TGI: > 100 µM
[3]
  TGI: 42.7 µM
[4]
  TGI: 52 µM
[5]
  TGI: 27.4 µM
[6]
  TGI: 33.2 µM
[7]
  TGI: 40 µM
[8]
  TGI: 71 µM
[9]
  TGI: 28.6 µM
[10]
  TGI: 59.2 µM
[11]
  TGI: > 100 µM
[12]
  TGI: 87.5 µM
[13]
  TGI: 64.7 µM
[14]
  TGI: 66.6 µM
[15]
  TGI: 70.6 µM
[16]
  TGI: > 100 µM
[17]
  TGI: 59.8 µM
[18]
  TGI: 64.6 µM
[19]
  TGI: 58.6 µM
[20]
  TGI: 33 µM
[21]
  TGI: 54 µM
[22]
  TGI: > 100 µM
[23]
  TGI: 37.9 µM
[24]
  TGI: 49.2 µM
[25]
  TGI: 50.1 µM
[26]
  TGI: 42.2 µM
[27]
  TGI: 32.2 µM
[28]
  TGI: > 100 µM
[29]
  TGI: > 100 µM
[30]
  TGI: > 100 µM
[31]
  TGI: > 100 µM
[32]
  TGI: 47.5 µM
[33]
  TGI: > 100 µM
[34]
  TGI: > 100 µM
[35]
  TGI: 88 µM
[36]
  TGI: 38.9 µM
[37]
  TGI: 34 µM
[38]
  TGI: > 100 µM
[39]
  TGI: > 100 µM
[40]
  TGI: > 100 µM
[41]
  TGI: > 100 µM
[42]
  TGI: 73.6 µM
[43]
  TGI: 73.5 µM
[44]
  TGI: 38 µM
[45]
  TGI: 91.9 µM
[46]
  TGI: 72.8 µM
[47]
  TGI: 38.8 µM
[48]
  TGI: 52.4 µM
[49]
  TGI: 35.8 µM
[50]
  TGI: > 100 µM
[51]
  TGI: 42.8 µM
[52]
  TGI: 31.5 µM
[53]
  TGI: 76.5 µM
[54]
  TGI: 79.3 µM

## O=C1c2scc(-c3ccccc3)c2-n2cccc21
[1]
  TGI: 24 µM
[2]
  TGI: 31.7 µM
[3]
  TGI: 25 µM
[4]
  TGI: 52.9 µM
[5]
  TGI: 29.9 µM
[6]
  TGI: 27.7 µM
[7]
  TGI: 25.3 µM
[8]
  TGI: 33.3 µM
[9]
  TGI: 30 µM
[55]
  TGI: 5.02 µM
[11]
  TGI: > 100 µM
[12]
  TGI: 42 µM
[13]
  TGI: > 100 µM
[56]
  TGI: 59.5 µM
[14]
  TGI: 27.2 µM
[15]
  TGI: 74.8 µM
[16]
  TGI: > 100 µM
[17]
  TGI: 60.8 µM
[18]
  TGI: 34.1 µM
[19]
  TGI: 38.1 µM
[21]
  TGI: 25.2 µM
[22]
  TGI: 17.7 µM
[23]
  TGI: > 100 µM
[57]
  TGI: 30.7 µM
[24]
  TGI: 37.9 µM
[25]
  TGI: > 100 µM
[26]
  TGI: > 100 µM
[27]
  TGI: 26.2 µM
[28]
  TGI: 30.3 µM
[29]
  TGI: 28 µM
[30]
  TGI: > 100 µM
[31]
  TGI: 31.9 µM
[32]
  TGI: 27.3 µM
[33]
  TGI: 27.4 µM
[34]
  TGI: 48 µM
[35]
  TGI: 44.7 µM
[36]
  TGI: 29 µM
[37]
  TGI: 28.8 µM
[58]
  TGI: 34.1 µM
[59]
  TGI: 30.7 µM
[38]
  TGI: 42.6 µM
[39]
  TGI: 25.4 µM
[40]
  TGI: 47.2 µM
[41]
  TGI: > 100 µM
[42]
  TGI: 55.6 µM
[43]
  TGI: > 100 µM
[44]
  TGI: 36 µM
[45]
  TGI: 31.4 µM
[46]
  TGI: 50 µM
[47]
  TGI: 38.1 µM
[48]
  TGI: 41.2 µM
[49]
  TGI: 27.9 µM
[50]
  TGI: 35.4 µM
[51]
  TGI: 80.9 µM
